Laboratory results: patent US5935928A, “Modified platelet factor-4” (Eli Lilly and Company, priority 1996, dated 1999)
Positions of bridges follow the written chain, without caps; N, C: chain ends. Chains are numbered I, II in the order given. No end group written: not given here.

Assay: Heparin-affinity chromatography (heparin binding)
Conditions: heparin-sepharose; eluted in high-affinity fraction 0.7M to 2.0M NaCl
Source text: The eluted proteins are then contacted with a heparin affinity resin. The ordinarily skilled artisan will readily realize that this step is best achieved in a column chromatography mode. Heparin affinity columns are commercially available from some of the same vendors mentioned above. In this step, the molecules of interest, both MPF-4 or CPF-4, bind to the heparin column and are eluted using an increasing linear salt gradient. The preferred salt is NaCl, and the portion of the gradient that is preferably collected is the 0.1-2.0M portion. The more highly preferred portion of the gradient to collect is the 0.7-2.0M portion.
The C4-pool was further fractionated by heparin affinity chromatography on a Econo-pac™ 5 ml heparin-sepharose cartridge (BioRad, Richmond, Calif. 94804). The bound proteins were eluted by a linear gradient of 0 to 2.0M NaCl in phosphate buffer saline (PBS) at a flow rate of 2.0 ml/min. The proteins that eluted from the column were pooled into three fractions: (1) non-heparin binding (flow through), (2) low-affinity heparin binding (0 to 0.7M NaCl), and (3) high-affinity heparin binding (0.7M to 2.0M NaCl) fractions.
The high affinity heparin binding fraction (3) (0.7M to 2.0M NaCl) was applied to a Vydac™ 0.46×10 cm C-4 HPLC column (The Marshall Co.; Worthington, Ohio 43085), previously equilibrated with 27% acetonitrile, 0.1% TFA. […]

heparin binding	Molecule
bind heparin	MPF-4: Naturally-occurring 54 amino acid protein (SEQ ID NO:1), homologous with the 54 C-terminal residues of PF-4, beginning with Ser-17 (SQVRPRHITSLEVIKAGPHCPTAQLIATLKNGRKICLDLQAPLYKKIIKKLLES)
bind heparin	CPF-4: Proteolytically cleaved, non-reduced PF-4: 16 amino acid chain (SEQ ID NO:2) disulfide bonded to the 54 amino acid chain of MPF-4 (protein, disulfide I:10-II:20, I:12-II:36; not fully specified) chain 1: EAEEDGDLQCLCVKTT chain 2: SQVRPRHITSLEVIKAGPHCPTAQLIATLKNGRKICLDLQAPLYKKIIKKLLES
